In patent US4062948A, “Dihydromocimycin antibiotics” (Gist-Brocades N.V., priority 1970, dated 1977):
Counter-ions that a name gives are not always drawn.

What was measured:
Type in all cases: in vivo
[1] = growth promotion in slaughter chickens (Example II); settings: control = 100
Excerpt: Slaughter chickens are given mocimycin in the form of the sodium salt obtained in Example 1, in a mixture with component of the feed (wheat flour), the amount of antibiotic in the feed (based on the weight of the feed) being as specified in the following Table, which gives the weight of the chickens after 3, 5 and 7 weeks.

[2] = growth promotion in pigs (Example III); settings: control = 100
Description: The sodium salt of mocimycin as obtained in Example I, was pre-mixed with wheat flour which mixture, added to the feed, was administered to pigs. The amount of the antibiotic present in the feed (based on the weight of the feed) is given hereinbelow in Table VII, in which the average relative weights of the pigs after 6 and 12 weeks, respectively are given.

[3] = test system: microorganism causing Treponema dysentery; experiment: pigs infected with Treponema dysentery (Example VI)
Excerpt: Twenty pigs, 3 months old, were infected with the microorganism causing Treponema dysentery by administering to them feed mixed with a homogenous mixture of contents of the intestines and intestinal mucous membranes of two animals suffereing from the disease. The infected pigs were divided into four groups of five animals each and the animals were fed with the feed as a slurry diluted 1:1 with water for 1 week. The total amount of feed per animal was 1.2 kg each day and was given in two portions.
After 5 days, the first symptoms of the disease were observed from the thin faeces and confirmed by a microbiological investigation of the faeces and […] a week, the animals were treated as follows:
group 2: 100 ppm of tylosin were added to the feed;
group 3: 25ppm of dihydromocimycin were added to the feed; and
group 4: 50 ppm of dihydromocimycin were added to the feed.
The antibiotic-enriched feed was administered for a week. After that week, feed without any antibiotic was given again. Recovery from the infection was observed from the weights of the animals and from inspection samples of the faeces, macroscopically from their consistencies, and microscopically by means of a specific immuno-fluoroescence technique. During the test, one animal of each of groups 1, 3 and 4 died.
The results are shown in the following Table wherein the weights indicated are the averages at that time of the still living animals. The consistency of the faeces is indicated as follows:
+ means thin liquid; ± means thick liquid; - means normal. The results of the immuno-fluorescence technique are indicated quantitatively by indicating the number of Treponemas in the visual field: 5 means very crowded; 4 means many; 3 means about 10 Treponemas; 2 means 1 or 2 Treponemas, 1 means more visual fields necessary to find one Treponema, and - means negative.

CC=CC=CC1OC(O)(C(CC)C(=O)NCC=CC=C(C)C(OC)C(C)C2OC(C=CC=CC=C(C)C(=O)c3c(O)cc[nH]c3=O)C(O)C2O)C(O)C(O)C1(C)C (stereo not drawn) [sodium salt of mocimycin]
weight of chickens relative to control (control = 100) ([1]; 5 ppm in feed, 3 weeks): 104%
weight of chickens relative to control (control = 100) ([1]; 5 ppm in feed, 5 weeks): 103%
weight of chickens relative to control (control = 100) ([1]; 5 ppm in feed, 7 weeks): 103%
weight of chickens relative to control (control = 100) ([1]; 10 ppm in feed, 3 weeks): 107%
weight of chickens relative to control (control = 100) ([1]; 10 ppm in feed, 5 weeks): 105%
weight of chickens relative to control (control = 100) ([1]; 10 ppm in feed, 7 weeks): 104%
weight of chickens relative to control (control = 100) ([1]; 20 ppm in feed, 3 weeks): 109%
weight of chickens relative to control (control = 100) ([1]; 20 ppm in feed, 5 weeks): 107%
weight of chickens relative to control (control = 100) ([1]; 20 ppm in feed, 7 weeks): 105%
feed conversion ([2]; 5 ppm in feed, 6 weeks): 95
growth (average relative weight) ([2]; 5 ppm in feed, 6 weeks): 107
feed conversion ([2]; 5 ppm in feed, 12 weeks): 98
growth (average relative weight) ([2]; 5 ppm in feed, 12 weeks): 104.5
feed conversion ([2]; 10 ppm in feed, 6 weeks): 92.5
growth (average relative weight) ([2]; 10 ppm in feed, 6 weeks): 108.5
feed conversion ([2]; 10 ppm in feed, 12 weeks): 99
growth (average relative weight) ([2]; 10 ppm in feed, 12 weeks): 104

CC[C@H]1OC(=O)C[C@@H](O)[C@H](C)[C@@H](O[C@@H]2O[C@H](C)[C@@H](O[C@H]3C[C@@](C)(O)[C@@H](O)[C@H](C)O3)[C@H](N(C)C)[C@H]2O)[C@@H](CC=O)C[C@@H](C)C(=O)/C=C/C(C)=C/[C@@H]1CO[C@@H]1O[C@H](C)[C@@H](O)[C@@H](OC)[C@H]1OC [tylosin, reference compound]
Weights ([3]; tylosin 100 ppm group, after 1 week (start of antibiotics)): 22.2 kg
Weights ([3]; tylosin 100 ppm group, just before infection (baseline)): 24.4 kg
Weights ([3]; tylosin 100 ppm, after 2 weeks): 21.4 kg
Weights ([3]; tylosin 100 ppm, after 3 weeks): 23.2 kg
